Patent US11160790B2, “Method of inhibiting Cryptococcus growth using eltrombopag” (priority 2019, dated 2021)

Tested on: C. neoformans H99
Test: XTT-reduction assay of biofilm metabolic activity
Format: cell-based, Cryptococcus neoformans
Procedure: Cryptococcus biofilms, which are composed of Cryptococcus cells and extracellular matrix, enhance the tolerance of Cryptococcus to antifungal agents (such as amphotericin B) and host defense mechanisms. To assess whether eltrombopag impacts biofilm formation in Cryptococcus, an XTT-reduction assay was used to measure the metabolic activity of C. neoformans cells treated with eltrombopag at 37° C. Briefly, C. neoformans […] cells were cultured in YPD medium at 30° C. overnight. The cells were washed twice with phosphate buffered saline (PBS) and resuspended in RPMI 1640 medium with or without eltrombopag at the indicated concentrations. The cell suspension (0.0005 OD600/mL) was added to a 96-well polystyrene plate and incubated at 37° C. for 24 or 48 hours. […] After incubation, the cells were washed three times with PBS and subjected to XTT reduction assay to quantify formazan formation by measuring the light absorbance at 492 nm. The experiments were performed in triplicate, and the results were presented as mean±standard deviation. Statistical significance for the data sets was determined using a two-tailed t test.

SMILES: CC1=NN(c2ccc(C)c(C)c2)C(=O)/C1=N\Nc1cccc(-c2cccc(C(=O)O)c2)c1O [eltrombopag]
- reduction of metabolic activity compared to the control group (0.125 mg/L, 37° C., 24 hours): more than 70%
- biofilm formation (metabolic activity, OD492) (two-fold serially diluted from 4 to 0.015 mg/L, 48 hours): inhibited the formation of C. neoformans biofilms in a dose-dependent manner
